Experimental data as given in patent US10532069B2, “Compositions and methods for treating joints” (DePuy Synthes Products, Inc., priority 2015, dated 2020).

Tests used:
[1] = tested on: Complete Freund's Adjuvant (CFA) induced joint inflammation in rat; assay: CFA model of inflammatory arthritis, study CFA #2 (100 uL CFA); format: in vivo; conditions: daily oral, high dose 30 mg/kg, FIG. 8
Description: In CFA #2 the same protocol was followed except for the lower dose of CFA which was intended to induce a less severe inflammatory reaction and subsequently milder pain. Also, daily oral ibuprofen (labeled as “IBR” in FIG. 8) was used as a positive control rather than diclofenac, at doses of 10 mg/kg and high 30 mg/kg. These doses were equivalent to human daily doses of […] and 3600 mg, respectively. Both are considered high doses of ibuprofen that are generally not recommended for long term use.

[2] = tested on: PGPS (peptidoglycan polysaccharide) reactivation arthritis in male Lewis rats; assay: PGPS model of episodic inflammatory arthritis: weight bearing and gait analysis; format: in vivo; conditions: PGPS second reactivation (after repriming)
Description: The PGPS model of arthritis is used to simulate episodic inflammation of the joint. PGPS (peptidoglycan polysaccharide) is a streptococcal cell wall formulation that is injected directly into the joint of the test subject, resulting in a painful inflammatory response. Unlike the continuous FCA response, the inflammatory pain from PGPS is transient, typically lasting only a few days. Following this “priming” injection to the joint, subsequent systemic injections result in inflammatory flares in the previously injected joint for a period of several days. The “reactivation” inflammatory flares can be repeated multiple times, with the inflammatory pain generally decreasing with subsequent reactivation cycles. Alternatively, the joint can be “reprimed” following the initial reactivation, resulting in a more robust inflammatory response in subsequent reactivations.
As with the rat MMT model, the effect of intra-articular therapies is assessed by static weight bearing measurements. […]
In the present experiment, two reactivation cycles were induced in male Lewis rats following the initial PGPS intra-articular injection. […] Weight bearing and gait analysis scores were recorded on days 1, 4, 7, and 14 following the reactivation injection. […] Weight bearing and gait analysis scores were recorded on days 1, 2, 3, and 4 following reactivation. […]

[3] = tested on: Complete Freund's Adjuvant (CFA) induced joint inflammation in rat; conditions: CFA #1
Description: Because OA is now known to have an inflammatory component, an animal model that mimics inflammatory arthritis was used to test HA/GlcN/CS formulations. Complete Freund's Adjuvant (CFA) comprises an emulsion of killed bacterial cells that is injected systemically or into the joint of a rat to induce severe inflammation. Two CFA studies were conducted, the first using a 200 uL injection of CFA to induce inflammation (CFA #1), the second using an injection volume of 100 uL (CFA #2). Test articles were prepared using the liquid/liquid formulation method described above.
Von Frey filaments were used to assess mechano-allodynia (pain sensation from a normally non-painful stimulus) on days 6, 7, 8, 17, and 21 following CFA injection. […] This protocol was used to test the 18.0 and 1.8 mg/mL HA/GlcN/CS formulations. As with the rat MMT model, the cumulative improvements in pain relief were calculated. […] In this figure, the 1.8 mg/mL HA/GlcN/CS group and the 18 mg/mL HA/GlcN/CS group are labeled as “G/C 1.8 mg/ml” and “G/C 18 mg/ml”, respectively. The untreated group is labeled as “Untx” in this figure.

For `CC(C)Cc1ccc(C(C)C(=O)O)cc1` (centres unmarked) [ibuprofen], the “pain relief as cumulative improvement in weight bearing deficiency” value [1] was “significant improvement in pain relief”.
For `C[C@]12C=CC(=O)C=C1CC[C@H]1[C@@H]3C[C@@H](O)[C@](O)(C(=O)CO)[C@@]3(C)C[C@H](O)[C@@]12F` [triamcinolone], the weight bearing deficit [2] was “significant improvement”.
For `O=C(O)Cc1ccccc1Nc1c(Cl)cccc1Cl` [diclofenac], the “safety (premature deaths of animals)” value [3] was “several animals in the diclofenac group died prematurely”, the “AUC analysis of pain relief compared to HA alone” value ([3]; comparison with HA alone, FIG. 7) was “statistically superior to HA alone” and the “AUC analysis of pain relief (Von Frey mechano-allodynia)” value ([3]; single IA injection on day 5 after CFA (diclofenac daily oral), days 6, 7, 8, 17, 21, FIG. 7) was “significant improvement in pain relief”.
